{"source": "patent US5597595A", "about": "“Low pH beverage fortified with calcium and vitamin D” (Abbott Laboratories, priority 1995, dated 1997)", "key": {"[1]": {"conditions": "600-800 IU/day; elderly, homebound or institutionalized individuals; cited from earlier work"}, "[2]": {"test_system": "aciduric and acidophilic organisms like certain varieties of yeasts and molds", "conditions": "pH reduced from 4.5 to 3.0; cited from earlier work"}, "[3]": {"experiment": "Titratable acidity of calcium sources", "assay_type": "physicochemical", "conditions": "with the exception of calcium chloride", "excerpt": "Acidity is desired in the liquid nutritional product of the present invention for several reasons such as: to maintain the calcium salt solubility, to complement flavor, to control microbial growth, and to enhance the role of preservatives, specifically potassium benzoate or sodium benzoate. On the other hand, too much acidity can result in increased tartness and sourness that make the product undesirable from a sensory point of view. […] Titratable acidity is an indication of the total acidity of a beverage."}, "[4]": {"conditions": "low birth weight infants; cited from earlier work"}, "[5]": {"conditions": "piglets; cited from earlier work"}, "[6]": {"description": "In this evaluation solubility was determined by a visual examination."}, "[7]": {"conditions": "in orange juice and apple juice; cited from earlier work"}, "[8]": {"experiment": "Acid-base and calcium binding constants of glycerophosphate", "assay_type": "physicochemical", "conditions": "Henderson-Hasselbalch equation; listed as GP", "excerpt": "GaGP binds calcium with an approximate formation constant of 1.7. CaGP, when dissolved in water, dissociates readily to provide \"free\" calcium ions and protonated glycerophosphate species. […] On the other hand, anions, such as malate, tartrate, propionate or succinate, do provide buffer capacity at pH=3.6, and accordingly require more base or acid than GP for final adjustment of pH."}, "[9]": {"conditions": "weak acid; cited from earlier work"}, "[10]": {"conditions": "rats fed three weeks, right femur calcium; cited from earlier work"}, "[11]": {"conditions": "without aluminum-containing drugs; normally functioning kidneys; cited from earlier work"}, "[12]": {"experiment": "Aluminum content of calcium sources", "conditions": "analysis of commercially available compounds", "source_text": "^1 Values determined by analysis of commercially available compounds."}, "[13]": {"experiment": "Recovery of vitamin D3 at 0-time", "assay_type": "physicochemical", "source_text": "The low pH beverage, the vitamin D3 emulsion and the powder beverage are saponified with methanolic potassium hydroxide to destroy the fat and release the vitamin D3 for extraction. The saponified samples are extracted with an ether/pentane mixture and the extracts are evaporated to dryness using nitrogen and reconstituted with iso-octane. Sample extracts are eluted on a cleanup HPLC column (cyanopropyl bonded silica), and column switching is used to transfer a \"slice\" of the eluant containing vitamin D3 onto an additional HPLC analytical column (aminopropyl bonded silica) for final quantitation. The vitamin D3 peak in the sample is quantitated using a linear regression external standard curve.\nTo compare the initial processing loss and stability of vitamin D3 of each variable with successive batches, two criteria were routinely measured: (1) % recovery of vitamin D3 at 0-time; and (2) half life of vitamin D3 (t1/2).\nThe % recovery of vitamin D3 of each batch was calculated by dividing the 0-time vitamin D3 result by the theoretical fortification of each batch times 100%. […] As used herein \"theoretical fortification\" refers to amount of vitamin D3 added to the product. As used herein \"0-time\" refers to the time of initial vitamin D3 analysis of the product. […]"}}, "note": "Structures can show the parent of a compound that is named as a salt. Where two headings read alike, the source gives them in different places.", "data": [{"compound": "vitamin D", "values": [{"measurement": "effect on calcium balance and fracture risk", "setting": "[1]", "value": "improve calcium balance and reduce fracture risk"}]}, {"compound": "O=C(O)c1ccccc1", "note": "[benzoic acid]", "values": [{"measurement": "preservative effect on reducing pH", "setting": "[2]", "value": "increased by nearly three times"}]}, {"compound": "Calcium Glycerophosphate [CaGP]", "values": [{"measurement": "titratable acidity, in words", "setting": "[3]", "value": "lowest titratable acidity"}, {"measurement": "effectiveness as a source of calcium in TPN solutions", "setting": "[4]", "value": "as effective as calcium gluconate"}, {"measurement": "effectiveness as a source of calcium in TPN solutions", "setting": "[5]", "value": "as effective as calcium gluconate"}]}, {"compound": "O=C(O)[C@H](O)[C@@H](O)[C@H](O)[C@H](O)CO", "note": "[D-Gluconic-Acid, D-gluconic acid (hemicalcium salt)]", "values": [{"measurement": "solubility at 1 month, pH 5.0", "setting": "[6]", "value": "partially Soluble"}]}, {"compound": "O=C(CO)[C@@H](O)[C@H](O)[C@H](O)CO", "note": "[Fructose]", "values": [{"measurement": "calcium bioavailability from CCM", "setting": "[7]", "value": "promoted positive calcium bioavailability"}]}, {"compound": "O=P(O)(O)OCC(O)CO", "note": "(centres unmarked) [glycerophosphate]", "values": [{"measurement": "effective acid-base buffering pH range / buffering capacity", "setting": "[8]", "value": "insignificant buffering capacity at pH=3.6"}, {"measurement": "pKf", "setting": "[9]", "value": 6.1}]}, {"compound": "O=P([O-])([O-])[O-].O=P([O-])([O-])[O-].[Ca+2].[Ca+2].[Ca+2]", "note": "[Tricalcium Phosphate, tricalcium phosphate]", "values": [{"measurement": "relative calcium bioavailability as compared to a control", "setting": "[10]", "value": 110, "unit": "%"}]}, {"compound": "O=C(O)CC(O)(CC(=O)O)C(=O)O", "note": "[Calcium Citrate, calcium citrate]", "values": [{"measurement": "relative calcium bioavailability as compared to a control", "setting": "[10]", "value": 110, "unit": "%"}, {"measurement": "risk of aluminum toxicity", "setting": "[11]", "value": "does not pose a risk of aluminum toxicity"}]}, {"compound": "[Ca+2].[OH-].[OH-]", "note": "[Calcium Hydroxide]", "values": [{"measurement": "Aluminum Content", "setting": "[12]", "value": "300-400 parts per million (ppm)"}]}, {"compound": "N[C@@H](CS)C(=O)O", "note": "[Cysteine]", "values": [{"measurement": "vitamin D3 recovery, in words", "setting": "[13]", "value": "did not affect vitamin D3 recovery"}]}]}
